{"source": "paper PMC9501058", "about": "“Clinical Effectiveness and Pharmacokinetics of Dalbavancin in Treatment-Experienced Patients with Skin, Osteoarticular, or Vascular Infections” (Pharmaceutics, 2022)", "key": {"[1]": {"test": "Adverse events under DBV", "assay_type": "in vivo, human", "text": "Table 1 Overall patients’ characteristics at the baseline. | column: Overall / n = 76; Intensive PK Study (n = 41) / Group 0 (n = 17)"}, "[2]": {"details": "human, in vivo"}, "[3]": {"test": "clinical", "details": "human, in vivo, iv"}, "[4]": {"details": "cited from earlier work"}, "[5]": {"test_system": "plasma proteins (mainly albumin)", "details": "human; cited from earlier work"}, "[6]": {"details": "single 1000 mg infusion; ref Nicolau et al. 14; cited from earlier work"}, "[7]": {"details": "35 healthy subjects, single infusion of 1500 mg; ref Rappo et al. 15; cited from earlier work"}, "[8]": {"details": "ref Dunne et al. 16; cited from earlier work"}}, "note": "Read-outs that look alike come from different tables or passages of the source.", "data": [{"molecule": "CN[C@H]1C(=O)N[C@@H]2Cc3ccc(cc3)Oc3cc4cc(c3O[C@@H]3O[C@H](C(=O)O)[C@@H](O)[C@H](O)[C@H]3NC(=O)CCCCCCCCC(C)C)Oc3ccc(cc3Cl)[C@@H](O)[C@@H]3NC(=O)[C@H](NC(=O)[C@@H]4NC(=O)[C@@H](NC2=O)c2cc(cc(O)c2Cl)Oc2cc1ccc2O)c1ccc(O)c(c1)-c1c(O[C@H]2O[C@H](CO)[C@@H](O)[C@H](O)[C@@H]2O)cc(O)cc1[C@@H](C(=O)NCCCN(C)C)NC3=O", "note": "[DBV, Dalbavancin]", "values": [{"measurement": "AEs: yes", "setting": "[1]; number of patients [%], group 0 (n = 17): single 1500 mg dose", "value": "1 [6%]"}, {"measurement": "AEs: yes", "setting": "[1]; number of patients, overall n = 76", "value": 1}, {"measurement": "AUC0–3w", "setting": "[2]", "value": "39,985 [37,045–39,985] mg/L·h"}, {"measurement": "Cmax II dose", "setting": "[2]", "value": "379.5 [321.3–448.8] mg/L"}, {"measurement": "AUC0–1w", "setting": "[2]; iv", "value": "26,693 [20,842–28,630] mg/L·h"}, {"measurement": "AUC0–2w", "setting": "[2]; iv", "value": "34,168 [25,336–37,301] mg/L·h"}, {"measurement": "AUC0–3w", "setting": "[2]; iv", "value": "39,270 [28,876–43,971] mg/L·h"}, {"measurement": "Cmax I dose", "setting": "[2]; iv", "value": "347.0 [292.4–479.2] mg/L"}, {"measurement": "Cumul. AUC0–4w", "setting": "[2]; iv", "value": "41,681 [32,055–48,180] mg/L·h"}, {"measurement": "Cmax", "setting": "[3]; 1500 mg, Cmax I dose", "value": 343, "unit": "µg/mL"}, {"measurement": "Cmax", "setting": "[3]; Cmax II dose", "value": 337, "unit": "µg/mL"}, {"measurement": "Elimination half-life", "setting": "[4]", "value": "220 to 240", "unit": "h"}, {"measurement": "Protein binding (mean percentage in humans)", "setting": "[5]", "value": 93, "unit": "%"}, {"measurement": "Mean penetration into skin blister fluid compared with plasma", "setting": "[6]", "value": 59.6, "unit": "%"}, {"measurement": "Penetration into the epithelial-lining fluid", "setting": "[7]", "value": 36, "unit": "%"}, {"measurement": "Mean bone/plasma AUC", "setting": "[8]", "value": 13.1, "unit": "%"}]}]}
